Results from ChEMBL document CHEMBL1159378, “Continuing studies on the cyanobacterium Lyngbya sp.: isolation and structure determination of 15-norlyngbyapeptin A and lyngbyabellin D” (J Nat Prod, 2003).

Tested on: KB
Assay: Cytotoxicity against human KB cells
Assay type: functional, cell-based

Row | SMILES | IC50
1 | CC[C@H](C)[C@@H](C(=O)N1CCC[C@H]1c1nccs1)N(C)C(=O)[C@H](CC(C)C)N(C)C(=O)[C@H](Cc1ccc(O)cc1)N(C)C(=O)/C=C(\C)OC [15-NORLYNGBYAPEPTIN A] | 1300 nM
2 | CCCC(=O)N[C@@H](C(C)C)[C@H](CC(=O)OC[C@@H](O)c1nc(C(=O)O[C@@H](CCCC(C)(Cl)Cl)[C@@H](C)C(=O)O[C@@H](c2nc(C(=O)OC)cs2)[C@](C)(O)CC)cs1)OC(C)=O [LYNGBYABELLIN D] | 100 nM
3 | CC[C@H](C)[C@@H](C(=O)N1CCC[C@H]1c1nccs1)N(C)C(=O)[C@H](CC(C)C)N(C)C(=O)[C@H](Cc1ccc(OC)cc1)N(C)C(=O)/C=C(\C)OC [LYNGBYAPEPTIN A] | > 5000 nM
